Test [1] addresses CDK2A (Homo sapiens, UniProt P24941). Briefly: Enzymatic kinase assay (filter-binding / flashplate, 33P incorporation). The format is biochemical. The note with it: enzymatic kinase selectivity. On the procedure:
(§1) Two methods were used to analyze phosphorylated peptides and proteins produced by the listed tyrosine and serine/threonine-specific protein kinases: either using a filter-binding assay (FB), or using a flashplate assay (FP). The activities of protein kinases were assayed in the presence or absence of inhibitors, by measuring the incorporation of ^33P from [γ^33P]ATP into appropriate substrates.
(§2) 96-well polypropylene microplates were used to assay the activity in the FB mode. To determine the inhibitory activity of compounds 10 μL of compound dilutions were pipetted into 96-well plates followed by the addition of 10 μL of assay mix and 10 μL of individual enzymes. With the addition of the enzymes the reactions were initiated and continued at RT. The reactions were stopped by the addition of 50 μL of a 125 mM EDTA solution pH 8.0. The final concentration of DMSO in the enzyme assays was 1%.
(§3) Flashplates are available as 96-well standard (STFPs) or as streptavidin-(SAFPs) or nickel coated FPs (NiFPs) from Perkin Elmer. STFPs are 96-well polystyrene microplates in which the interior of each well is permanently coated with a thin layer of polystyrene-based scintillant. Streptavidin flashplates (SAFP) are 96 or 384-well STFPs coated with streptavidin. SAFPs are suitable for a wide variety of assay applications which utilize biotinylated capture molecules. NiFP or nickel chelate flashplates are 96- or 384-well STFPs coated with nickel chelate. NiFPs are designed for in-plate, radiometric assays which utilize 4- or 6-histidine tagged proteins and peptides.
(§4) All kinase assays were performed in STFPs for 60 mins at RT and stopped with 50 μL of 0.5% H3PO4 except PKA which were carried out in polypropylene 96- and 384-well plates, respectively. PKA assays were stopped with 50 μL of 125 mM EDTA (pH 8.0) and 50 μL were transferred to either SAFPs or NIFPs to capture the biotinylated or histidine tagged peptides phosphorylated by PKA (SAFP) or by NiFPs. All wells were then washed three times with 200 μL of 0.5% H3PO4 and the plates were dried at room temperature. The plates were sealed and counted in a microplate scintillation counter (TopCount NXT, TopCount NXT HTS). The final concentration of DMSO in the enzyme assays was 1%.

For test [2], the target named is ERK2 (Homo sapiens, UniProt P28482). The description is as above. In kind it is biochemical. The settings on record: enzymatic kinase selectivity. Here is the method: as §1, §2, §3, §4
Chain of ERK2 (P28482 whole entry, species assumed): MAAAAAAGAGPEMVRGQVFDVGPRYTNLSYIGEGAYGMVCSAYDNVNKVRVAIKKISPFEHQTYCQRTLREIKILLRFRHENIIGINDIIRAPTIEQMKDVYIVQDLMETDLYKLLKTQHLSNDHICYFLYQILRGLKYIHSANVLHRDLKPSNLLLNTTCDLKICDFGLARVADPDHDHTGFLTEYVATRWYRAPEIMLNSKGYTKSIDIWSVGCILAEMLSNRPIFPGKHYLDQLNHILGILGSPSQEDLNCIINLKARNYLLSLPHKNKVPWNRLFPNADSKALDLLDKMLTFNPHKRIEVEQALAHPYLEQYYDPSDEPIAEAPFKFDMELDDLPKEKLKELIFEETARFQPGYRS
Test [3] deals with KDR (Homo sapiens, UniProt P35968). Described as above. In kind it is biochemical. The settings on record: enzymatic kinase selectivity. On the procedure: as §1, §2, §3, §4
Chain of KDR (P35968 20-1356, species assumed): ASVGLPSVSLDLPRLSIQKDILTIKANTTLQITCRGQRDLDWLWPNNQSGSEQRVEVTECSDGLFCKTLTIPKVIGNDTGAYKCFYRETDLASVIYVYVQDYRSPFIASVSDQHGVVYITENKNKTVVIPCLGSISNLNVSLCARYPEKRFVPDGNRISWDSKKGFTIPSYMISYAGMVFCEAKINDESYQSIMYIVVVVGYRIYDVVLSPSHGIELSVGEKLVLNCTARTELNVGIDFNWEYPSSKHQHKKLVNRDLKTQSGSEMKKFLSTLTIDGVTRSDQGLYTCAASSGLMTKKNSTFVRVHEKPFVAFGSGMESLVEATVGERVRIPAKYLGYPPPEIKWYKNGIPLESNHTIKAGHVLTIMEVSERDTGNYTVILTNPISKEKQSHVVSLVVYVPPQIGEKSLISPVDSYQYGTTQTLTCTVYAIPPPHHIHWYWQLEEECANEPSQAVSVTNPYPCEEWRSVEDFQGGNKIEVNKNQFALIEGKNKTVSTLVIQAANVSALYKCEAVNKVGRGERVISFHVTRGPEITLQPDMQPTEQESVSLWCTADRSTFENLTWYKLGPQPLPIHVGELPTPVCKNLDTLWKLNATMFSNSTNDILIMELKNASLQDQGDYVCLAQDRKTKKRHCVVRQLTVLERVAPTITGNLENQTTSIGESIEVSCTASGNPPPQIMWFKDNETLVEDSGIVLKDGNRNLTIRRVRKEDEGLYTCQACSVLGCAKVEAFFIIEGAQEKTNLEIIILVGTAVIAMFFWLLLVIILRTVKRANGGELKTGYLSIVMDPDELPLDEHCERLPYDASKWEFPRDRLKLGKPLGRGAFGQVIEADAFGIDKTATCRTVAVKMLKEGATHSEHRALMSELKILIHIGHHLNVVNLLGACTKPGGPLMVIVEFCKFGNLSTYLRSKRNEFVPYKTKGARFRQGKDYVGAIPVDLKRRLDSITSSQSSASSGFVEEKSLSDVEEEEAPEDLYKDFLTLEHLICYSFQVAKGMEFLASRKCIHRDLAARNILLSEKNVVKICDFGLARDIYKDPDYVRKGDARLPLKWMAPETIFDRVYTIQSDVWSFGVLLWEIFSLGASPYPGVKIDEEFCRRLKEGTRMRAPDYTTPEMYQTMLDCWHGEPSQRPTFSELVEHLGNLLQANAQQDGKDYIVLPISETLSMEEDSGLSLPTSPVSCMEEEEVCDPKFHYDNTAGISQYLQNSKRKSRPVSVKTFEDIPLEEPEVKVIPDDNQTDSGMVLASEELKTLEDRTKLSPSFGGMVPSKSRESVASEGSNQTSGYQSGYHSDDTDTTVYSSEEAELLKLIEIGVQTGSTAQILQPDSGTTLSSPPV
Test [4] has as its target IGF1R (Homo sapiens, UniProt P08069). Kind of test: Cellular IGF-1R assay: inhibition of IGF1R phosphorylation in transduced Hek293 cells, capture ELISA (MSD). The format is cell-based. Also noted: Hek293 cells transduced with the corresponding receptors; expressed in transfected cells; host or cells: Hek293 (Hek293-IGF1R). Put shortly:
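Serum-starved Hek293 cells transduced with IGF1R or InsR were pre-incubated 1 h with 3-fold dilutions from 10 μM (0.1% DMSO), then stimulated 10 min with 1.0 ng/μL IGF or 5.0 ng/μL insulin. pTyr1135/1136 (pINSR Tyr1150/1151) was read by MSD capture ELISA, normalised to stimulated vs unstimulated window; IC50 from 4-parameter fit.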

Bounds are passed on as bounds.

Chain of IGF1R (P08069 31-1367): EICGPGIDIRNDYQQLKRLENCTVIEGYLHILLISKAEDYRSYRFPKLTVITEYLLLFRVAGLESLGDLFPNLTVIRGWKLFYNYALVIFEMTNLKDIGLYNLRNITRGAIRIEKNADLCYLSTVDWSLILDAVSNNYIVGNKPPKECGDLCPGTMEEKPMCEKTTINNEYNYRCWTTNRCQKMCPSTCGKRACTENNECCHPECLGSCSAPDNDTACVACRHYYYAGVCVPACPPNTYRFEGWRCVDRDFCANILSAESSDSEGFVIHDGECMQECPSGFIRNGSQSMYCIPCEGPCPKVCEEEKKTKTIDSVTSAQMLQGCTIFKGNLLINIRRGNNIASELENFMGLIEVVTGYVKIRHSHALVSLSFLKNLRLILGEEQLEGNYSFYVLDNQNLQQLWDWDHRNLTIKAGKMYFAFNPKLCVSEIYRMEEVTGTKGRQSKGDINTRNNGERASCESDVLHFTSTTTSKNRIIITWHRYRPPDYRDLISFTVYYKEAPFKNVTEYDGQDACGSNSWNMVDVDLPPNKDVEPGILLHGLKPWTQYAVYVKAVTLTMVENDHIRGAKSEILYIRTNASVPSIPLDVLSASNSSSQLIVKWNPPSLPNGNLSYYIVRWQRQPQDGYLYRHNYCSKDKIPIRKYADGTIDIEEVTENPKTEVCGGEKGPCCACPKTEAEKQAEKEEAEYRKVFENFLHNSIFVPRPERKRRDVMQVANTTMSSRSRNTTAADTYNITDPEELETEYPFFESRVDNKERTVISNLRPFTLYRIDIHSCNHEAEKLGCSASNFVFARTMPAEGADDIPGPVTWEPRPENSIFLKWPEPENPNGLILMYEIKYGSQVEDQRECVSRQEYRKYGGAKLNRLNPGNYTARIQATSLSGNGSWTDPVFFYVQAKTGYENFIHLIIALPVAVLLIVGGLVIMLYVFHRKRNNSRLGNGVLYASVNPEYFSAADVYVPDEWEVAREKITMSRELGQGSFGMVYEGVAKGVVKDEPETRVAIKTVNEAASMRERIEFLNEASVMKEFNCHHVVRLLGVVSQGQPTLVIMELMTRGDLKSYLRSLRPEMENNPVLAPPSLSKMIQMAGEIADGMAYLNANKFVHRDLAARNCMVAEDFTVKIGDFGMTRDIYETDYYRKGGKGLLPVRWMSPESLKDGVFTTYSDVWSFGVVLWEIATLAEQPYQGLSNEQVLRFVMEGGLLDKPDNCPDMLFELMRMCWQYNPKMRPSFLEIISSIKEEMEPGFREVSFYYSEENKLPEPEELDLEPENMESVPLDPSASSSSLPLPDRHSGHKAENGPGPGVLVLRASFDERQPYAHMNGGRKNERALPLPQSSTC

With `CC(=O)NC[C@H]1C[C@@H](n2cc(-c3ccc4c(c3)OC(c3ccccc3)CC4)c3c(N)ncnc32)C1` (mixture of isomers) [Example 16, (R,S)—N-{cis-3-[4-Amino-5-(2-phenyl-chroman-7-yl)-pyrrolo[2,3-d]pyrimidin-7-yl]-cyclobutylmethyl}-acetamide], the IC50 (commonly the point on the concentration scale where inhibition reaches its midpoint) is above 10000 nM in test [1], above 10000 nM in test [2], 160 nM in test [3] and 22 nM in test [4].

In the case of `Nc1ncnc2c1c(-c1ccc3c(c1)OC(c1ccccc1)C=C3)cn2[C@H]1C[C@@H](CN2CCS(=O)(=O)CC2)C1` (mixture of isomers) [Example 21, (R,S)-7-[cis-3-(1,1-Dioxo-1-thiomorpholin-4-ylmethyl)-cyclobutyl]-5-(2-phenyl-2H-chromen-7-yl)-7H-pyrrolo[2,3-d]pyrimidin-4-ylamine], the IC50 in test [1] was above 10000 nM; in test [2], above 10000 nM; in test [3], 110 nM; in test [4], 9 nM.

For `CC(=O)N1CCN([C@H]2C[C@@H](n3cc(-c4ccc5c(c4)OC(c4ccccc4)CC5)c4c(N)ncnc43)C2)CC1` (relative stereo) [Example 38, 1-(4-{cis-3-[4-Amino-5-(2-phenyl-chroman-7-yl)-pyrrolo[2,3-d]pyrimidin-7-yl]-cyclobutyl}-piperazin-1-yl)-ethanone], the IC50 in test [1] is above 10000 nM; in test [2] it was above 10000 nM; in test [3], 240 nM; in test [4] it was 11 nM.

Consider `Nc1ncnc2c1c(-c1ccc3c(c1)OC(c1ccccc1)CC3)cn2C1CC(O)(CO)C1` (single isomer, unassigned) [Example 26], for which the concentration for half-maximal inhibition (IC50) in test [1] was above 10000 nM; in test [2], above 10000 nM; in test [3] it was 250 nM; in test [4] it was 27 to 106 nM.

For the origin of these results see patent US20120289501A1, “Benzene-fused 6-membered oxygen-containing heterocyclic derivatives of bicyclic heteroaryls” (NOVARTIS AG, priority 2009, published 2012).
